Data on eleven compounds can be found in US20090156687A1, “Fab I and inhibition of apicomplexan parasites” (priority 2003, published 2009).

The structures appear in SMILES notation. Values after ≈ are worked out from the molar mass of the structure shown. Read-outs that look alike come from different tables or passages of the source.

The test system of data set [1] is P. falciparum. The data set is described as follows: In vitro synergy with cerulein. Further details: species or system Plasmodium falciparum. The note with it: cerulein (inhibitor of Fab F, B, H) with triclosan.
Data set [2] deals with Cryptosporidia. Format: cell-based.
In data set [3] the test system is P. falciparum. The data set is described as follows: microbe, parasite or virus in culture. The data set is classed as cell-based, Plasmodium falciparum. The note with it: for IC50: Plasmodium falciparum. The protocol: Because Fab I was located, the effects of triclosan on Plasmodium falciparum in vitro were investigated. For P. falciparum, the in vitro assays (Milhous et al., 1985; Oduola et al., 1988) were conducted using a modification of the semiautomated microdilution technique for assessing anti-folate antagonists. Instead of dialysed human plasma, 10% Albumax I (Gibco BRL), a serum-free substitute, was used to supplement the RPMI 1640 medium. All test compounds were dissolved in DMSO and diluted 400-fold into complete medium before serial dilution over 11 concentrations. Incubation was at 37° C. in 5% O2, 5% CO2 and 90% N2 for 48 h. [3H]-Hypoxanthine incorporation was measured as described previously (Milhous et al, 1985; Oduola et al, 1988).
P. falciparum. The in vitro assays (Oduala et al., 1988; Milhous et al., 1985) were conducted using a modification of the semiautomated microdilution technique for assessing antifolate antagonists. Instead of dialysed human plasma, 10% Albumaz I (Gibco BRL), a serum-free substitute, was used to supplement the RPMI 16-40 media. All test compounds were dissolved in DMSO and diluted 400-fold into complete media before serial dilution over 11 concentrations. Incubation was at 37° C. in 5% O2, 5% CO2 and 90% N2 for 48h, [3H]-Hypoxanthine incorporation was measured as described previously (13, 14).

Data set [4] has as its system EPSP synthase. The data set is described as follows: EPSP synthase enzyme activity. The data set is classed as biochemical, T. gondii. The note with it: 1 mM.
Data set [5] has as its system T. gondii. The data set can be described thus: T. gondii growth inhibition in human foreskin fibroblasts, 3H uracil uptake. The data set is classed as cell-based, Toxoplasma gondii. To be noted: for percentage inhibition of T. gondii uracil uptake: 125 nanograms per ml. As for the experimental part: For T. gondii, growth inhibition was assessed over a 4-day period as described previously (Mack et al., 1984; Roberts et al., 1998; Zuther et al., 1999) using human foreskin fibroblasts (HFF) infected with 105 tachyzoites of the RH strain of T. gondii. The assays are based on microscopic visual inspection of infected and inhibitor treated cultures, and on quantitation of nucleic acid synthesis of the parasite by measuring uptake of 3H uracil into the parasite's nucleic acid. Uracil is not utilized by mammalian cells. Parasites present as tachyzoites (RH, Ptg., a clone derived from the Me49 strain), bradyzoites (Me49), and R5 mutants (mixed tachyzoites/bradyzoites of the Me49 strain that can be stage switched by culture conditions) (Bohne et al., 1993; Soete et al., 1994; Tomovo and Boothroyd, 1995; Weiss et al., 1992) are suitable for assay systems used to study effectsof inhibitors. Only the RH strain tachyzoites, cultured for up to 72 hours, had been used in previously reported assays. The use of Me49, Ptg, and R5 mutants are unique aspects of the methods used in these assays in this invention.
(§1) In these assays toxicity of a candidate inhibitor was assessed by its ability to prevent growth of human foreskin fibroblasts (HFF) after 4 days and after 8 days as measured by tritiated thymidine uptake and microscopic evaluation. Confluent monolayers of HFF were infected with tachyzoites and bradyzoites. Inhibitor was added one hour later. Non-toxic doses were used in parasite growth inhibition assays. Parasite growth was measured by ability to incorporate tritiated uracil during the last 48 hours of culture.
T. gondii in vitro. Growth inhibition was assessed over a 4-day period as described previously by Roberts et al., 1998; Zuther et al., 1999; and Mack et al., 1984, all incorporated by reference, using human foreskin fibroblasts (HFF) infected with 105 tachyzoites of the RH strain of T. gondii. Uptake of 3H uracil was determined. Evaluation of slides of preparations containing HFF, Toxoplasma and inhibitors were made.

Data set [6] has as its system P. berghei. The data set is described as follows: P. berghei murine model. Format: in vivo. To be noted: subcutaneously, 3 or 38 mg/kg.
Data set [7] addresses P. falciparum FAB I (Plasmodium falciparum, UniProt Q9BH77). The data set can be described thus: Fab I enzyme activity (NADH dependent). To be noted: purified P. falciparum FAB I. Format: biochemical.
Data set [8] deals with human foreskin fibroblasts (HFF). The data set can be described thus: Toxicity to host cells, tritiated thymidine uptake and microscopic evaluation. The data set is classed as cell-based. The note with it: at concentrations effective against T. gondii. As for the experimental part:
as §1

For data set [9], the system named is T. gondii. To be noted: literature (Waller et al., 1998; Zuther et al., 1999); cited from earlier work.
Setting [10] is: 48 h, read-out: IC 50 when cultured with P Falciparum, strain TM91C234, 48 h.
[11] abbreviates: 48 h, read-out: IC 50 when cultured with P Falciparum, strain W2 (chloroquine and pyrimethamine resistant), 48 h.
Where [12] appears, read: TM90C2A, 48 h, read-out: IC 50 when cultured with P Falciparum, strain TM90C2A (chloroquine and mefloquine resistant, admission isolate), 48 h.
The mark [13] stands for this setting: TM90C2B, 48 h, read-out: IC 50 when cultured with P Falciparum, strain TM90C2B (recrudescent isolate, atovaquone resistant), 48 h.

Sequence of P. falciparum FAB I (Q9BH77 entry or part of it): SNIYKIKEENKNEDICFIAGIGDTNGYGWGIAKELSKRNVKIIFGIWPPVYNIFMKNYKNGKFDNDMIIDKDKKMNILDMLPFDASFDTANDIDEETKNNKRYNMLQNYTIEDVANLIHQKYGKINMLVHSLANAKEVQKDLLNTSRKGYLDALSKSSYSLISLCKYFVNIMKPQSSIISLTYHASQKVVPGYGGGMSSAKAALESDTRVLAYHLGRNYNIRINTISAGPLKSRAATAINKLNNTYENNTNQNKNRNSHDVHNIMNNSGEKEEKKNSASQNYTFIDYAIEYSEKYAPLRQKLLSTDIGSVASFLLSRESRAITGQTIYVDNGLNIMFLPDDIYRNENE

For `C/C=C/C/C=C/CCC(=O)[C@H]1O[C@H]1C(N)=O`, in data set [1], the synergy in vitro entry is “Synergy”.
In the case of `NC1C=CC=C(C(=O)O)C1` (racemic) [gabaculine], the “effect on Cryptosporidia” value in [2] was “inhibitory effects”.
On the same count and under the same terms, under `O=C(O)CC[N+](=O)[O-]` [3NPA] stands “inhibited”.
Same read-out and setting: under `Oc1cccc2cccnc12` [8-OH-quinoline] stands “inhibitory effects”.
With `CCN(CC)CCCC(C)Nc1ccnc2cc(Cl)ccc12` (stereo not shown) [Chloroquine], the IC50 in data set [3] (48 h, read-out: IC 50 when cultured with P Falciparum, strain D6 (chloroquine and pyrimethamine susceptible), 48 h) worked out at 0.0038 µg/mL (≈ 0.0119 µM); in data set [3] (setting [10]), 0.0461 µg/mL (≈ 0.144 µM); in data set [3] (setting [11]) it was 0.162 µg/mL (≈ 0.508 µM); in [3] (setting [12]), 0.0573 µg/mL (≈ 0.179 µM); in data set [3] (setting [13]), 0.0827 µg/mL (≈ 0.259 µM); in data set [3] (W2, read-out: IC50 against pyrimethamine resistant P. falciparum (W2), strain W2, text value), 0.16 µg/mL (≈ 0.5 µM).
As to `OC(c1cc(C(F)(F)F)nc2c(C(F)(F)F)cccc12)C1CCCCN1` (stereo not shown) [Mefloquine], the IC50 in [3] (48 h, read-out: IC 50 when cultured with P Falciparum) amounted to 0.0053 µg/mL (≈ 0.014 µM); in data set [3] (setting [10]) it was 0.0196 µg/mL (≈ 0.0518 µM); in data set [3] (setting [11]), 0.002 µg/mL (≈ 0.00529 µM); in data set [3] (setting [12]), 0.0245 µg/mL (≈ 0.0648 µM); in data set [3] (setting [13]) it was 0.0193 µg/mL (≈ 0.051 µM).
Consider `O=C(O)CNCP(=O)(O)O` [NPMG], for which the “effect on Cryptosporidia” value in [2] is given as “inhibitory effects”. The “EPSP synthase enzyme activity” value in data set [4] is “inhibition”. The “in vitro growth of asexual erythrocytic forms” value in data set [3] (P. falciparum) is recorded as “inhibition”. Moreover, the “uptake of tritiated uracil by tachyzoites” value in data set [5] (RH strain) is given as “inhibited”.
With `O=C(NO)c1ccccc1O` [SHAM], in data set [2], the “effect on Cryptosporidia” value is recorded as “inhibitory effects”.
Turning to `Oc1cc(Cl)ccc1Oc1ccc(Cl)cc1Cl` [Triclosan, 5-chloro-2-[2,4 dichloropheoxyl] phenol], in data set [6], the death result was “prevented death”. For the same compound, in data set [6], the parasitemia result is recorded as “cleared parasitemia”. Moreover, the “toxicity in P. berghei murine model” value in data set [6] is “nontoxic”. In addition, in data set [7], the “FAB I enzyme activity” value is given as “inhibited”. The IC50 was 1.8 µg/mL (≈ 6.22 µM) in [3] (48 h, strain TM91C234, 48 h, read-out: IC 50 when cultured with P Falciparum); 1.89 µg/mL (≈ 6.53 µM) in data set [3] (TM90C2A, 48 h, read-out: IC 50 when cultured with P Falciparum); 1.33 µg/mL (≈ 4.59 µM) in data set [3] (TM90C2B, 48 h, strain TM90C2B (recrudescent isolate, atovaquone resistant), 48 h, read-out: IC 50 when cultured with P Falciparum); 0.15 µg/mL (≈ 0.518 µM) in data set [3] (W2, strain W2, text value, read-out: IC50 against pyrimethamine resistant P. falciparum (W2)); 0.15 to 2 µg/mL (≈ 0.518 to 6.91 µM) in data set [3] (range over strains, read-out: IC50, growth and survival of P. falciparum); 0.062 µg/mL (≈ 0.214 µM) in [5] (Toxoplasma gondii, Fibroblast, 96 h, read-out: IC50, T. gondii uracil uptake). Further, the “percentage inhibition of T. gondii uracil uptake” value in data set [5] (day 1, separate experiment) is given as 20%; in [5] (day 4, separate experiment) it was 72%. Besides, the “IC50, T. gondii uracil uptake” value in data set [5] (RH strain in HFF, 4 days after infection) turned out to be 62 nanograms/ml. For the same compound, the “toxicity to host cells / host cells uptake of thymidine” value in [8] is “no toxicity”; in [8] (listed as triclosan) it was “no inhibitory effect”.
As for `C[C@@H](Oc1ccc(Oc2ncc(Cl)cc2F)cc1)C(=O)O` [clodinafop], the “inhibition of T. gondii” value in [5] (1 micromolar) is given as “ionhibited”.
Take `C=C/C(C)=C/[C@@]1(C)SC(=O)C(C)=C1O` [thiolactomycin]: the “growth of T. gondii in vitro” value in data set [9] was “restrict the growth”.
